According to ChEMBL document CHEMBL5728232, “Multi-functionalized polysaccharide compounds and use thereof for targeting the cation-independent mannose 6-phosphate receptor” (2021):

Target: Cation-independent mannose-6-phosphate receptor (Homo sapiens, UniProt P11717)
Assay: Binding of the M6P Analogs of the Invention with CI-M6PR: 96-Well plates (Maxisorp Nunc) are incubated overnight at 4° C. with 200 μl of PMP (pentamannose 6-phosphate) at the concentration of 200 μg·ml−1, in carbonate buffer (NaHCO3/Na2CO3 at 0.1M, pH 9.6). The following day, the solution containing the residual PMP is discarded and the wells are saturated, for 1 h at ambient temperature, with 360 μl of 1% gelatin (Type A from Porcine Skin) diluted in PBS (1.9 mM NaH2PO4, 8.1 mM Na2PO4 and 154 mM NaCl, pH 7.4). The wells are then rinsed five times with PBS to which 0.2% gelatin has been added. All the washes and also the dilutions are carried out in the solution of PBS to which 0.2% gelatin has been added. The M6P analogs to be tested at the various concentrations (from 10−2 to 10−7 M) are pre-incubated in the presence of pre-biotinylated CI-M6PR (M6PRb) ([…]) for 20 min, then 200 μl of the mixture are incubated in the wells for 2 h, at ambient temperature. After three washes, the wells are incubated for 1 h with a streptavidin-peroxidase solution (250 μl per well; 3.10−8 M). After three more washes, 200 μl of a solution of OPD (o-phenylenediamine, 1 mg·ml−1 in citrate buffer, pH 5.0, and 1 μl 30% H2O2.ml−1; Sigma Aldrich) are added. […]

Sequence of Cation-independent mannose-6-phosphate receptor (P11717 whole entry): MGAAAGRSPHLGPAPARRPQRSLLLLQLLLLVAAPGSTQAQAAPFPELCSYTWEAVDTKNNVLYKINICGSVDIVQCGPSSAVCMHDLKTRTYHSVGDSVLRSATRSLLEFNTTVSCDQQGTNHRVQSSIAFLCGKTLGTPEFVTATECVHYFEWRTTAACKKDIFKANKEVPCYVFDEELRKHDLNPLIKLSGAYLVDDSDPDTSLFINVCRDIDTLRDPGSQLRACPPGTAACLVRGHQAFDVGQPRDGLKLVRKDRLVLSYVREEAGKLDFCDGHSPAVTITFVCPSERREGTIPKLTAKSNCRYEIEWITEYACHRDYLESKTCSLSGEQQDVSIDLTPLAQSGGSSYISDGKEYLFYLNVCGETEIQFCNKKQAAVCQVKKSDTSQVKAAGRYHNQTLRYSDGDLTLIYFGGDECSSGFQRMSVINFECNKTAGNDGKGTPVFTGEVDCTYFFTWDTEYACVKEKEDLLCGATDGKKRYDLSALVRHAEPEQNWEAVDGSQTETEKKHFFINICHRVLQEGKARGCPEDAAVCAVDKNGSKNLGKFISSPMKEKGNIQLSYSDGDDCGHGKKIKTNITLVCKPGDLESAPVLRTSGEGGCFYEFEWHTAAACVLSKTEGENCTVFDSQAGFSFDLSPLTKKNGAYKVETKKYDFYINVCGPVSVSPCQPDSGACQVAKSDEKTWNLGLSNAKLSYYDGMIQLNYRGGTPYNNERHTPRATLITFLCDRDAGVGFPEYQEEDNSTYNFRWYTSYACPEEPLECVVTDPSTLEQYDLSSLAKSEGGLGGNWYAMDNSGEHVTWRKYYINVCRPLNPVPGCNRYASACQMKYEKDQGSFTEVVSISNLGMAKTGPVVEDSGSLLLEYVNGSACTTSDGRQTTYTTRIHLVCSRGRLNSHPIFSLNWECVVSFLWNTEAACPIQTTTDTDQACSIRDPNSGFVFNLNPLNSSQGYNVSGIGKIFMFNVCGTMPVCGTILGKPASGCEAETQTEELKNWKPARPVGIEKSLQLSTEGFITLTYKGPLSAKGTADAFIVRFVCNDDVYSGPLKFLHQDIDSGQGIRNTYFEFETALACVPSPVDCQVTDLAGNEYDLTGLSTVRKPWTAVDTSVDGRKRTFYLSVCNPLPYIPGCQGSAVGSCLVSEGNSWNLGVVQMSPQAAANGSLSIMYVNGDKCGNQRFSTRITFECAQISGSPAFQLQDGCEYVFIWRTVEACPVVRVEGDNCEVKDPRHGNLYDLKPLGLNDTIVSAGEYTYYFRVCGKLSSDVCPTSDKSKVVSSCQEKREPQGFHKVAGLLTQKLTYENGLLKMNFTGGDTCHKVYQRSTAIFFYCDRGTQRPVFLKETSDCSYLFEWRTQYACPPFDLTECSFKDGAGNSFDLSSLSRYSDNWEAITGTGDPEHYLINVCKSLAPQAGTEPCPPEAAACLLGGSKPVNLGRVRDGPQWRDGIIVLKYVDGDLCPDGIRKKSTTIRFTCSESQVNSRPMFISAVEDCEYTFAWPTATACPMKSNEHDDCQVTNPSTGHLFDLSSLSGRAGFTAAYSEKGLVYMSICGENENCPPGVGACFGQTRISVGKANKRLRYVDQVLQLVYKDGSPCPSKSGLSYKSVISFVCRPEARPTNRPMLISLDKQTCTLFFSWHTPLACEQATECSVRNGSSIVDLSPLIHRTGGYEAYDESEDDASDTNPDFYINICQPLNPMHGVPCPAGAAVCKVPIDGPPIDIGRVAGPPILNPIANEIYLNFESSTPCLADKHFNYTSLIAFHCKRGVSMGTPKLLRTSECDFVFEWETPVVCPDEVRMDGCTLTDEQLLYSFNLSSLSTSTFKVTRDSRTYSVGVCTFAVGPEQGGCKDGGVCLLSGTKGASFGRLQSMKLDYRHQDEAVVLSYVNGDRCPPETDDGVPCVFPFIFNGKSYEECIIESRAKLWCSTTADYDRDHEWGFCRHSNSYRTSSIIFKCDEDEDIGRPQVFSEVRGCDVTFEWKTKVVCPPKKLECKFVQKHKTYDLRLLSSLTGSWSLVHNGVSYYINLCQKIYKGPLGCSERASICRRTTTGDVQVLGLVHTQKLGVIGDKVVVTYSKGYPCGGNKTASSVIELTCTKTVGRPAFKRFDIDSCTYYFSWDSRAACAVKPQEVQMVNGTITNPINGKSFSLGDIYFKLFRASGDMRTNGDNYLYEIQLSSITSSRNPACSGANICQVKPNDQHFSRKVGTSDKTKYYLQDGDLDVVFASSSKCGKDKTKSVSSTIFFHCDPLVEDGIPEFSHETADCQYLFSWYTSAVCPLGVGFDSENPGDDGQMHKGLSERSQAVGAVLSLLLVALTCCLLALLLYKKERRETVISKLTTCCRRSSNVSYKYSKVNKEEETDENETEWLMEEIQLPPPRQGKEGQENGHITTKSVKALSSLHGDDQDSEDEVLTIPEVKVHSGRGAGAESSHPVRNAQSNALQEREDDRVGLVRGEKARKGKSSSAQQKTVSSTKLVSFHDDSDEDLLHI

- IC50: 5 µM
SMILES: NCCO[C@H]1OC(CO)[C@@H](O)[C@H](O)C1O[C@H]1OC(CCP(=O)(O)O)[C@@H](O)[C@H](O)C1O (stereo partly specified)
